For one assay, the target named is human STING (WT) (Homo sapiens, UniProt Q86WV6). Nature of the assay: ISRE reporter assay with STING co-transfection in HEK293T cells. The conditions noted are these: hSTING, Figure S1f. It is filed as cell-based. In general terms: A reporter such as luciferase makes a cellular process visible.
Assay [1] deals with hSTING(1–153)–mSTING(153–378) chimera (Homo sapiens, UniProt Q86WV6, A215V/A300E/A302V/A313V/A318T/A350V/D237N/D297E/D320G/E174G/E362R/E369D/G230I/G344N/H185L/H232R/I244V/K224M/K347M/K370Q/L189M/L202F/L222R/L247I/L333I/L346P/M214V/M357L/Q196R/Q276K/Q306R/R191S/R253P/S275A/S321N/S345A/S353P/T181M/T229N/T256V/T354P/T356V/V194G/V258I/V343M/V351A/Y182F/Y186H/Y274D). The assay is described as above. Particulars: for ISRE reporter activity, mean: h(1-153)/m(153-378)STING, Figure S1f. Format: cell-based, human/mouse.

Another assay concerns the target STING(TMEM173) (Homo sapiens, UniProt Q86WV6, G230A/R293Q/R71H). The experiment in a line: photoaffinity labeling and competition chemoproteomics in THP-1 cells. Format: binding.
For a further assay, the target named is human STING (Homo sapiens, UniProt Q86WV6, G230A/R293Q/R71H). The experiment in a line: THP1-Dual ISRE-Luc reporter gene assay (primary screen and dose response). Particulars: for THP1-Dual reporter activity: single replicates (n=2); for AC50: THP1-Dual ISRE-Luc Assay.
Assay [2] concerns the target TXNDC12 Thioredoxin domain-containing protein 12 (Homo sapiens, UniProt O95881). Nature of the assay: photoaffinity labeling and competition chemoproteomics in THP-1 cells. It is filed as binding.
The target of the next assay is RABL6 Rab-like protein 6 (Homo sapiens, UniProt Q3YEC7). The description is as above. Format: binding.
The next assay concerns the target SYNE2 Nesprin-2 (Homo sapiens, UniProt Q8WXH0). The description is as above. Format: binding.
Assay [3] has as its target SLC25A13 Calcium-binding mitochondrial carrier protein Aralar2 (Homo sapiens, UniProt Q9UJS0). The description is as above.
Assay [4] relates to BMDM, human STING knock-in. The experiment in a line: IP10 induction in bone marrow-derived macrophages. It is filed as cell-based, mouse. Particulars: 50μM, n=1.
Another assay has as its system BMDM, WT mSTING. The experiment in a line: IP10 induction in bone marrow-derived macrophages. The conditions noted are these: 50μM, n=1. It is filed as cell-based, mouse.
The test system of the next assay is BMDM, mSTING Indel/Indel. The experiment in a line: IP10 induction in bone marrow-derived macrophages. Particulars: 50μM, n=1. It is filed as cell-based, mouse.

Values joined by “and” are separate entries in the source; they are usually repeats but may differ in a detail not shown here. Identical values can stand only once.

Sequence of human STING (WT) (Q86WV6 whole entry): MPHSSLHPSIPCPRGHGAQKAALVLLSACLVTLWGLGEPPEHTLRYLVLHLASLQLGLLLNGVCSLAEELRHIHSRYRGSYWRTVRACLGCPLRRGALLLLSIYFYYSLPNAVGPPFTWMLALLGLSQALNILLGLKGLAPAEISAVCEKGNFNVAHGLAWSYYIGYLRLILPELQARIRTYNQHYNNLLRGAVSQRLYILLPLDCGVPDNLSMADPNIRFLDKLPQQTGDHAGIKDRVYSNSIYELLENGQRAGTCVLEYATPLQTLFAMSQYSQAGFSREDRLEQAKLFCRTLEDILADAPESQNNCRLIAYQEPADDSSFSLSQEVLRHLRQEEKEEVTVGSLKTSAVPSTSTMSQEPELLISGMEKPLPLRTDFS
Sequence of human STING (Q86WV6 whole entry R71H/G230A/R293Q, the tested form may be a part): as the sequence (Q86WV6 whole entry) above, with R71H, G230A, R293Q counted along it
Sequence of STING(TMEM173) (Q86WV6 whole entry R71H/G230A/R293Q): as the sequence (Q86WV6 whole entry) above, with R71H, G230A, R293Q counted along it
Sequence of hSTING(1–153)–mSTING(153–378) chimera (Q86WV6 with tags, fused parts or gaps with the stated changes): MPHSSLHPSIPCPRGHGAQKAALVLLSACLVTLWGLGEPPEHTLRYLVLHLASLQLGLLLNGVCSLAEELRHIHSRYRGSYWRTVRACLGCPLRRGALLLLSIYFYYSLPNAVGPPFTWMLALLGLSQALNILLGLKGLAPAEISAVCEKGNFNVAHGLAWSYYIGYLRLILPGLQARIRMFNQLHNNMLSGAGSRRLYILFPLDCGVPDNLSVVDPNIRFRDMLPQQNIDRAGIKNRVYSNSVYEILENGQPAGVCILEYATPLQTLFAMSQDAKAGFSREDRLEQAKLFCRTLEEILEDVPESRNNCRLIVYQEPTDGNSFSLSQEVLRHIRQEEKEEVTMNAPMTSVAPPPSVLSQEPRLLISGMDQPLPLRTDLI
Sequence of TXNDC12 Thioredoxin domain-containing protein 12 (O95881 27-172): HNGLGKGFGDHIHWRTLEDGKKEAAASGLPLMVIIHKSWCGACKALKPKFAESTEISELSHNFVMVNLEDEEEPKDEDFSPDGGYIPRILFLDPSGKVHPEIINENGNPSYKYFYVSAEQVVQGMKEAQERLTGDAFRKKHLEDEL
Sequence of RABL6 Rab-like protein 6 (Q3YEC7 whole entry): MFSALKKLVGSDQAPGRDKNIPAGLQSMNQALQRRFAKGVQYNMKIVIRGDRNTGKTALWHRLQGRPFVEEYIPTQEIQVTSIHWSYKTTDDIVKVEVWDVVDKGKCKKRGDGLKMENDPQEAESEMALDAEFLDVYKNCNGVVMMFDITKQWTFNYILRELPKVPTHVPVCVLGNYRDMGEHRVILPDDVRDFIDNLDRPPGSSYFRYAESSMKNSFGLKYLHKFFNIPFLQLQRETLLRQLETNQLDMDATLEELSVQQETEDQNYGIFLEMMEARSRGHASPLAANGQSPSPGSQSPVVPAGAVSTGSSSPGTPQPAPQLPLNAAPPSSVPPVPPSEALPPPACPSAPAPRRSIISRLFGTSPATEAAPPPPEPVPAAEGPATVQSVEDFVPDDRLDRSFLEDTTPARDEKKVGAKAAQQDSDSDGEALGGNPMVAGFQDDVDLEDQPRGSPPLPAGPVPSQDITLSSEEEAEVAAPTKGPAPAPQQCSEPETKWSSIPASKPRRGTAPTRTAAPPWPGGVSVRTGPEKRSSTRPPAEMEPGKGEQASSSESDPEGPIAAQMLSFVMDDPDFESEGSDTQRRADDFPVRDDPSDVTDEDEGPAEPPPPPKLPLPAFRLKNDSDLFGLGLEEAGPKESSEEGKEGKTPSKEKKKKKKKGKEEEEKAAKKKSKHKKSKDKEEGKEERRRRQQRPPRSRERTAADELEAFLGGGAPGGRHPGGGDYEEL
Sequence of SLC25A13 Calcium-binding mitochondrial carrier protein Aralar2 (Q9UJS0 whole entry): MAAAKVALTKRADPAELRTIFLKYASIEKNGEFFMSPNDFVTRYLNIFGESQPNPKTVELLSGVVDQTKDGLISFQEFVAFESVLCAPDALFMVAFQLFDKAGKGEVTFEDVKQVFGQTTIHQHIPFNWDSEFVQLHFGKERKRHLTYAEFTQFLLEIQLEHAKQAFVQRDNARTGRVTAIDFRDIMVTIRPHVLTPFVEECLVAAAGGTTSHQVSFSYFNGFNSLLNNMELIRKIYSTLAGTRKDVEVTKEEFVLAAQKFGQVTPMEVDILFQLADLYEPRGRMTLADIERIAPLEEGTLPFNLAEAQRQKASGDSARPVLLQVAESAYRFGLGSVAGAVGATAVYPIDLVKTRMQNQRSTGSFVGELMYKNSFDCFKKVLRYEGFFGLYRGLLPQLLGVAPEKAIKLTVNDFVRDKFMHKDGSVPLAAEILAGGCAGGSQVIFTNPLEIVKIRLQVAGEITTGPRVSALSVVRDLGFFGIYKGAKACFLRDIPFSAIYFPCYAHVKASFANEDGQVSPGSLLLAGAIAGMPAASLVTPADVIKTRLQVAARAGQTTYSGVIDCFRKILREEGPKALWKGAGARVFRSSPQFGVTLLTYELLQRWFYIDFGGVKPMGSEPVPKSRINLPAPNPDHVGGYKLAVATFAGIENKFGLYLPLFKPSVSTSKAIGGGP

For `Cc1ccc2c(=O)c3cccc(CC(=O)O)c3oc2c1C` [DMXAA, 5,6-dimethylxanthenone-4-acetic acid, reference compound], the “ISRE reporter activity, mean” value on human STING (WT) (Log[μM] 0) is 1.3; on human STING (WT) (Log[μM] 0.3) it was 1.4; on human STING (WT) (Log[μM] 0.6), 1.2; on human STING (WT) (Log[μM] 0.9) it was 1.3; at human STING (WT) (Log[μM] 1.2) it was 1; on human STING (WT) (Log[μM] 1.5), 1.6. Besides, the “ISRE reporter activity, mean” value was found to be 1.2 at human STING (WT) (Log[μM] 1.8); 1.4 on human STING (WT) (Log[μM] 2.1); 1.5 at human STING (WT) (Log[μM] 2.4); 1.9 at human STING (WT) (Log[μM] 2.7); 0.7 in [1] (Log[μM] 0); 0.7 in [1] (Log[μM] 0.3). In addition, the “ISRE reporter activity, mean” value is 0.7 in assay [1] (Log[μM] 0.6); 0.9 in assay [1] (Log[μM] 0.9); 9.4 in [1] (Log[μM] 1.2); 82.5 in [1] (Log[μM] 1.5); 101.1 in [1] (Log[μM] 1.8); 106.7 in [1] (Log[μM] 2.1). Moreover, in assay [1] (Log[μM] 2.4), the “ISRE reporter activity, mean” value was 109.5. Besides, in assay [1] (hSTING TMD–mSTING LBD chimera), the “STING activation in words” value is given as “responded fully”.
Regarding `CNc1ccccc1CS(=O)(=O)NC(=O)c1ccc(NCc2ccc(C3(C(C)(C)C)OCC(C)(C)CO3)cc2)c(OC)c1` [NVS-STG3], at STING(TMEM173) (20 μM competitor, 1 μM NVS-STG4), the “competition of NVS-STG4 labeling in words” value is “competed”. Moreover, the THP1-Dual reporter activity was -1.082 and 21.604 on human STING (97.7 nM); -3.144 and -12.05 at human STING (195 nM); -15.339 and 25.944 at human STING (391 nM); 62.36 and 63.63 on human STING (781 nM); 1502.2 and 1735.82 at human STING (1563 nM); 6139.8 and 5609.9 on human STING (3125 nM). Further, the THP1-Dual reporter activity was 8825.5 and 7956 on human STING (6250 nM); 8733.31 and 7877.19 at human STING (12500 nM). Further, the activity on human STING was half-maximal at 2.7 µM (AC50).
Consider `C#CCCC1(CCC(=O)NCCCS(=O)(=O)NC(=O)c2ccc(NCc3ccc(C4(C(C)(C)C)OCC(C)(C)CO4)cc3)c(OC)c2)N=N1` [NVS-STG4], for which the “Abundance Ratio (log2): (DMSO) / (NJC652)” value was -0.18 in [2]; -1.82 on STING(TMEM173) (TMEM173); 0.01 on RABL6 Rab-like protein 6; 0.26 at SYNE2 Nesprin-2; -0.21 in [3]. For the same compound, at STING(TMEM173) (1 μM probe, pull-down), the “enrichment of STING(TMEM173) over no probe control” value is recorded as “over 2 fold”. Also, the THP1-Dual reporter activity at human STING (97.7 nM) was -53.887 and -41.218; on human STING (195 nM) it was -52.59 and -42.841; on human STING (391 nM), -38.43 and -29.964; on human STING (781 nM), -39.736 and -25.431; on human STING (1563 nM) it was -32.277 and -48.463; on human STING (3125 nM), -20.873 and -28.245. The THP1-Dual reporter activity at human STING (6250 nM) was 1623.13 and 1111.27; on human STING (12500 nM), 4114.59 and 3953.84; at human STING (25000 nM) it was 2243.38 and 2653.78. The compound further came in with an AC50 at human STING of 6.9 µM.
Turning to `Nc1nc2c(ncn2[C@@H]2O[C@@H]3COP(=O)(O)O[C@H]4[C@@H](O)[C@H](n5cnc6c(N)ncnc65)O[C@@H]4COP(=O)(O)O[C@@H]2[C@@H]3O)c(=O)[nH]1` [cGAMP, 2’,3’-cGMP-AMP, reference compound], the IP10 in assay [4] (BMDM hSTING+/+) is recorded as 2945 pg/mL; in [4] (BMDM hSTING+/indel) it was 1331.5 pg/mL; in the assay on BMDM, WT mSTING, 3440.25 pg/mL; with BMDM, mSTING Indel/Indel, 0 pg/mL.

The term AC50 denotes the midpoint of the concentration-response curve, whichever way the signal moves. A lower AC50 goes with greater potency.
